According to patent US20230257383A1, “COMPOUND SERVING AS BTK INHIBITOR, PREPARATION METHOD THEREFOR, AND USE THEREOF” (CHENGDU HYPERWAY PHARMACEUTICALS CO., LTD., priority 2020, published 2023):
Where two headings read alike, the source gives them in different places.

Key:
[1] = Liver microsome metabolic stability test (human); assay type: in vitro ADME; conditions: liver microsomes, read-out: CLint (μL/min/mg) Human
Protocol: (§1) 1: To the sample wells of T0, T5, T10, T20, T30, T60 and NCF60, 10 μL of the test or reference working solution and 80 μL of microsome working solution (hepatic microsome with a protein concentration of 0.5 mg/mL) were added, and to Blank60 well, only the microsome working solution was added. Then samples of the Blank60, T5, T10, T20, T30 and T60 other than TO and NCF60 were placed in a 37° C. water bath and pre-incubated for about 10 min.
(§2) 2: To the TO sample well, 300 μL of stop solution (containing 200 ng/mL tolbutamide and 200 ng/mL labetalol in acetonitrile solution) was added first, followed by 10 μL of NADPH regeneration system working solution.
(§3) 3: After the pre-incubation of Blank60, T5, T10, T20, T30 and T60 incubation plates, 10 μL of NADPH regeneration system working solution was added to each sample well to start the reaction, and 10 μL of 100 mM potassium phosphate buffer was added to the NCF60 sample well.
(§4) 4: After incubation for an appropriate time (such as 5, 10, 20, 30 and 60 min), to each test sample well and control well of the Blank60, T5, T10, T20, T30, T60 and NCF60 plates, 300 μL of stop solution was added to terminate the reaction.
(§5) 5: All sample plates were shaken to mix well and centrifuged at 4000 rpm for 20 min, and 100 μL of the supernatant of the test sample or control sample was taken and diluted with 300 μL of pure water for LC-MS/MS analysis.
(§6) 6: Data analysis: T1/2 and CLint(mic) (μL/min/mg) values were calculated according to the first-order elimination kinetics. The first-order elimination kinetics equation was: […]

[2] = Liver microsome metabolic stability test (rat); assay type: in vitro ADME; conditions: liver microsomes, read-out: CLint (μL/min/mg) Rat
Protocol: as §1, §2, §3, §4, §5, §6

[3] = test system: TMD8 cell proliferation; assay: In vitro cell proliferation inhibitory activity test (CTG), TMD8; assay type: cell-based; conditions: Homo sapiens, TMD8, 72 h, TMD8 cells
Protocol: (§7) Test Example 4: In Vitro Cell Proliferation Inhibitory Activity Test
(§8) Cells were cultured in 1640 medium, added with 10% inactivated FBS and 1% double antibiotics, and cultured at 37° C. and 5% CO2.
(§9) (1) Cells were routinely cultured until the cell density was 80%-90%, and the cells were harvested when their number reached the requirement.
(§10) (2) Cells were resuspended with corresponding culture medium, counted, and prepared into cell suspension at appropriate density.
(§11) (3) The cell suspension was added to a 96-well plate, 100 μL per well.
(§12) (4) Cells were cultured overnight in a 37° C., 5% CO2 incubator.
(§13) (1) The compounds to be tested were diluted with DMSO to make a stock solution with a final concentration of 20 mM for later use.
(§14) (2) The stock solution was diluted 10 times from 20 mM to 2 mM with DMSO, and then diluted 3 times from 2 mM to 9 concentrations.
(§15) (3) The blank control wells were cells plus 0.5% DMSO, as high-reading control wells.
(§16) (4) Wells with no cells and only medium were used as low-reading control wells.
(§17) 4: Cell treatment with compound
(§18) (1) 24 h after the cells were plated, the compounds acted alone, and 99 μL of growth medium was added to each well, followed by 1 μL of the compound prepared in step 3. The plate was shaken gently to mix uniformly, and then placed in a 37° C., 5% CO2 incubator.
(§19) (2) The cell plate was placed in an incubator for 72 h.
(§20) 5: Detection by CTG method
(§21) (1) The cell plate to be tested was placed at room temperature for 30 min, and 100 μL of medium was discarded from each well.
(§22) (2) 100 μL of CTG reagent (CelltiterGlo kit) was added to each well, placed on a fast shaker for 2 min, and stood at room temperature in the dark for 30 min.
(§23) (3) The chemiluminescent signal value was read with the Envision instrument.
(§24) IC50 was calculated by using GraphPad Prism 8 software. The IC50 (half inhibitory concentration) of the compound was derived using the following nonlinear fitting formula, and the results are shown in the following table:
(§25) Y=Bottom+(Top−Bottom)/(1+10^((Log IC50−X)×HillSlope))
(§26) X: log value of compound concentration, Y: inhibition rate (% inhibition)
(§27) Inhibition rate (% inhibition)=(reading of high-reading control well-reading of compound well)/(reading of high-reading control well-reading of low-reading control well)×100

[4] = test system: TMD8 mouse subcutaneous xenograft tumor; assay: TMD8 pharmacodynamic model test; assay type: in vivo; conditions: same dose of 10 mg/kg, FIG. 1
Protocol: Test Example 7: TNMD8 Pharmacodynamic Model Test
Human diffuse large B-cell lymphoma TMD8 cells were monolayer-cultured in vitro in RPNHI1640 medium with […], 100 U/mL penicillin and 100 μg/mL streptomycin, in a 37° C., […] incubator. Routine digestion with trypsin-EDTA was performed twice a week for passaging. When the cell density was […] and the number reached the requirement, cells were harvested, counted and inoculated. 0.2 ml (1×10^7 cells) of TMVD8 cells (added with matrigel at a volume ratio of 1:1) were subcutaneously inoculated on the right back of each mouse. The mice were administered in groups when the average tumor volume reached about 137 mm^3. Tumor diameters were measured twice a week with vernier calipers. The tumor volume was calculated by the formula V=0.5 a×b^2, where a and b represent the long and short diameters of the tumor, respectively.

[5] = Pharmacokinetic test, oral, SD rats; assay type: in vivo; conditions: oral 10 mg/kg
Protocol: Each test compound was administered orally (10 mg/kg, 3 rats in each group) to SD rats for pharmacokinetic study. […] Animals were fasted overnight before oral administration, and fed again after 4 h of administration. […] At each collection time point, 3 whole blood samples were collected at a the collection volume of about 0.2-0.3 mL. […] The collected plasma was stored at −20° C. before analysis. 20 μL of plasma sample was added into a 1.6 mL 96-well deep-well plate, added with 200 μL of working internal standard solution (the same volume of vehicle was added to the blank instead of internal standard), vortexed for 1 min, and centrifuged at 5800 rpm for 10 min. 100 μL of the supernatant was added to a 96-well injection plate for LC-MS/MS analysis.

[6] = test system: DOHH2 cell proliferation; assay: In vitro cell proliferation inhibitory activity test (CTG), DOHH2; assay type: cell-based; conditions: Homo sapiens, DOHH-2
Protocol: as §7, §8, §9, §10, §11, §12, §13, §14, §15, §16, §17, §18, §19, §20, §21, §22, §23, §24, §25, §26, §27

[7] = test system: BT474 cell proliferation; assay: In vitro cell proliferation inhibitory activity test (CTG), BT474; assay type: cell-based; conditions: Homo sapiens, BT-474, BT474 cell proliferation
Protocol: as §7, §8, §9, §10, §11, §12, §13, §14, §15, §16, §17, §18, §19, §20, §21, §22, §23, §24, §25, §26, §27

[8] = test system: NCI-N87 cell proliferation; assay: In vitro cell proliferation inhibitory activity test (CTG), NCI-N87; assay type: cell-based; conditions: Homo sapiens
Protocol: as §7, §8, §9, §10, §11, §12, §13, §14, §15, §16, §17, §18, §19, §20, §21, §22, §23, §24, §25, §26, §27

[9] = molecular target: HER2 kinase (Homo sapiens, UniProt P04626); assay: HER2 kinase activity test (HTRF); assay type: biochemical
Protocol: Test Example 5: HER2 Kinase Activity Test
1. Her2 Kinase test steps
2) 100 nl of the diluted compound working solution was transferred into each well of a reaction plate (784075, Greiner) by an Echo 550 liquid hander. The reaction plate was sealed with a sealing film and centrifuged at 1000 g for 1 min.
3) 1 ng/μL Her2 kinase solution was prepared with 1× kinase reaction buffer.
4) 5 μL of the kinase solution prepared above was added to each well of the reaction plate. The plate was sealed with a sealing film, centrifuged at 1000 g for 1 min, and placed at room temperature for 10 min.
5) A mixture of 2× kinase substrate and ATP was prepared by using 1× kinase reaction buffer, and the 2× Her2 kinase substrate was 2 μM TK-substrate-biotin and 4 μM ATP
6) 5 μL of the mixture of 2× TK-substrate-biotin and ATP was added to the reaction plate, centrifuged at 1000 g for 30 seconds to start the reaction.
7) Her2 kinase test was performed at room temperature for 50 min of reaction.
9) 10 μL of the mixture of Sa-XL 665 and TK-antibody-Cryptate was added to each well, centrifuged at 1000 g for 30 seconds, and reacted at room temperature for 1 h.
10) The fluorescence signals at 615 nm (Cryptate) and 665 nm (XL665) were read by Envision 2104.
1) The percentage inhibition was calculated as follows: […]
Ratiopositive control: average value of Ratio 665/615 nm of all positive control wells in the plate.
Rationegative control: average value of Ratio 665/615 nm of all negative control wells in the plate.
2) Calculation of IC50 and fitting of dose-effect curve of compound:
The IC50 of the compound was derived using the following nonlinear fitting formula with GraphPad 6.0.
Y=Bottom+(Top−Bottom)/(1+10^((Log IC50−X)×HillSlope)).
X: log value of compound concentration; Y: percentage inhibition of compound

[10] = Blood-brain barrier permeability test, oral, SD rats; assay type: in vivo; conditions: rat, oral 10 mg/kg single dose; for concentration at 1 h / Kp at 1 h: time point 1 h; for concentration at 4 h / Kp at 4 h: time point 4 h
Protocol: Test Example 6: Blood-Brain Barrier Permeability Test
Each test compound was administered orally at a single dose of 10 mg/kg to SD rats for pharmacokinetic study. Each group included 9 rats. The test compound was dissolved in 5% DMSO+10% solutol+85% saline, vortexed for 1-2 min, and ultrasonicated for 5-10 min to prepare into a colorless, transparent and clear administration solution. Animals were fasted overnight before administration. 1 h, 2 h, and 4 h after administration, three SD rats were selected from each group to take about 0.2-0.3 mL of blood through their orbit. The blood sample was placed on ice once collected, and centrifuged to separate the plasma within 15 min (centrifugation conditions: 8000 rpm, 1 min, room temperature). The collected plasma was stored at −20° C. before analysis. Immediately after blood collection, the cerebrospinal fluid and brain tissue were collected. The cerebrospinal fluid was draw out by dural puncture with a micro-sampler syringe under direct vision. Namely, about 100 μl of cerebrospinal fluid was collected with a 100 μl micro sample syringe from the rat that was anesthetized by chloral hydrate, with the head-fixed, the back hair-cut off, a transverse incision (2 cm) made at the line connecting the roots of the two ears, and the muscle layer of the neck and skull base bluntly scraped to expose the foramen magnum. The cerebrospinal fluid was stored at −20° C. before analysis. The rat then was sacrificed immediately, with its head cut off. The dissected brain tissue, with the surface capillaries peeled off, was weighed, added with 3 times the amount of cold saline, homogenized by a homogenizer for 1 min, and stored at −20° C. before analysis. 20 μL of plasma sample and brain homogenate sample was respectively added into 200 μL of working internal standard solution (the same volume of vehicle was added to the blank instead of internal standard), vortexed for 1 min, and centrifuged at 13500 rpm for 10 min. 100 μL of the supernatant was taken and analyzed by LC-MS/MS. 20 μL of the cerebrospinal fluid was added into 60 μL of working internal standard solution (the same volume of vehicle, instead of internal standard, was added to the blank), vortexed for 1 min, and centrifuged at 13500 rpm for 10 min. 50 μL of the supernatant was taken and analyzed by LC-MS/MS.

[11] = brain, read-out: Drug concentration in brain tissue
[12] = brain/plasma, read-out: Brain tissue/plasma
[13] = cerebrospinal fluid, read-out: Drug concentration in cerebrospinal fluid
[14] = cerebrospinal fluid/plasma, read-out: Cerebrospinal fluid/plasma
[15] = plasma, read-out: Plasma drug concentration

HER2 kinase, sequence (P04626 23-1255): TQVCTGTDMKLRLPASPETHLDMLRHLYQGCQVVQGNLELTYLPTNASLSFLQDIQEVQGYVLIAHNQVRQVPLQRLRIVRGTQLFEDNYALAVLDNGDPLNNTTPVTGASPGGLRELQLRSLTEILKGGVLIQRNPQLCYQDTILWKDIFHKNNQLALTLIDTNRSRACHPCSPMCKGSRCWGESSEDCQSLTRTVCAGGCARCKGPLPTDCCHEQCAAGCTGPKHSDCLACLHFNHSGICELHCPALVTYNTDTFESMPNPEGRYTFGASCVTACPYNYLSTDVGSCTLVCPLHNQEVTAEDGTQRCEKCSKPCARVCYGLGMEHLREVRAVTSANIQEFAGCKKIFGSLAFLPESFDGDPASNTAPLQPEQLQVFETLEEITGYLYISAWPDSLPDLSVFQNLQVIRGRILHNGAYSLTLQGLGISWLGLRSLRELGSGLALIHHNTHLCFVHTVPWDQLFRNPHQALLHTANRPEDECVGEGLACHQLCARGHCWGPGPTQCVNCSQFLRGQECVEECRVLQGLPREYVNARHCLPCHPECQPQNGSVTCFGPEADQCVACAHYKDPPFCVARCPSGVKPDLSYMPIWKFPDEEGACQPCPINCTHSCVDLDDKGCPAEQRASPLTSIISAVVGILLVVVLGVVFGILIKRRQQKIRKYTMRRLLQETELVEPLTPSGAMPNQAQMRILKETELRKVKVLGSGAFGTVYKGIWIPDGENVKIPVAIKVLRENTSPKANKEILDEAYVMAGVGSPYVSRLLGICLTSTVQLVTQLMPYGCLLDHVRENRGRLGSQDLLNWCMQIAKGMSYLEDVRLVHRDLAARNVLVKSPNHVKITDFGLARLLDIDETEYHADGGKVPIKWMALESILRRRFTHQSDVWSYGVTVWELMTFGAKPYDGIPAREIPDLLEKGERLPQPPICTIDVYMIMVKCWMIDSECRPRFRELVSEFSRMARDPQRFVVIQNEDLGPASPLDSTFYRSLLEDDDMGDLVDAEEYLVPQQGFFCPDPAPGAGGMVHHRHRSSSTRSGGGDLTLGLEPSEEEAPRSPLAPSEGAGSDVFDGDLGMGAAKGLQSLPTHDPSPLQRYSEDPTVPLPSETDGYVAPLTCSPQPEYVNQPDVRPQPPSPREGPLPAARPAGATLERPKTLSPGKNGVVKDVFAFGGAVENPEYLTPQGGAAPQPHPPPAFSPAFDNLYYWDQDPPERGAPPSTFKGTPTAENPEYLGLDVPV

Row | microsomal CLint [1] | microsomal CLint [2] | SMILES | IC50 [3] | inhibitory effect against the tumor compared with ARQ-531 and ibrutinib [4] | IC50 [7] | IC50 [8] | IC50 [9] | further results
1 | < 9.6 µL/min/mg | 15.7 µL/min/mg | COc1cccc(Oc2ccc(-c3nc(C4CCC(CO)OC4)n4ccnc(N)c34)cc2)c1C#N (single isomer, unassigned) [Example 89-P1] | 4.3 nM | significantly better inhibitory effect against the tumor than the clinical phase II drug ARQ-531 and the marketed drug ibrutinib |  |  |  | 
2 | < 9.6 µL/min/mg | 13.7 µL/min/mg | Nc1nccn2c(C34CCC(CO)(CC3)OC4)nc(-c3ccc(C(=O)Nc4cc(C(F)(F)F)ccn4)cc3)c12 [Example 118] | 23.8 nM | significantly better inhibitory effect against the tumor than the clinical phase II drug ARQ-531 and the marketed drug ibrutinib |  |  |  | Cl [5]: 0.8 mL/min/kg; IC50 [6]: 250 nM
3 |  |  | Nc1nccn2c(C34CCC(CO)(CC3)OC4)nc(-c3ccc(C(F)(F)c4cccc(F)c4F)cc3)c12 [Example 130] |  |  | 89.9 nM | 100 nM | 4.35 nM | 
4 |  |  | Nc1nccn2c(C34CCC(CO)(CC3)OC4)nc(-c3ccc(C(F)(F)c4cccc(F)c4Cl)cc3)c12 [Example 146] |  |  | 86.9 nM | 82 nM | 3.92 nM | concentration at 1 h [10, 11]: 296 ng/g; concentration at 4 h [10, 11]: 410 ng/g; Kp at 1 h [10, 12]: 0.78; Kp at 4 h [10, 12]: 1.1; concentration at 1 h [10, 13]: 27.4 ng/mL; concentration at 4 h [10, 13]: 34.3 ng/mL; Kp at 1 h [10, 14]: 0.072; Kp at 4 h [10, 14]: 0.092; concentration at 1 h [10, 15]: 380 ng/mL; concentration at 4 h [10, 15]: 373 ng/mL
